From patent publication US6489137B2, “Detection of loss of the wild-type huBUB1 gene” (Chiron Corporation, priority 1997, dated 2002)

Molecular target: T1, huBUB1 kinase (Homo sapiens, UniProt O43683)
T1 construct: Plasmid p385-1, encoding full-length huBUB1 in the vector pCR3.1 (Invitrogen), was employed as a backbone for further constructs; made in house; host or cells: cell-free coupled in vitro transcription/translation (T7 TnT kit, Promega) from pCR3.1 plasmids, anti-FLAG immunopurified
Assay: in vitro huBUB1 kinase (autophosphorylation) assay
Format: biochemical
Conditions: for relative huBUB1 autophosphorylation: immunopurified FLAG-BUB3/BUB1, labeled-ATP kinase reaction, SDS-PAGE, phosphorimager; for inhibition of huBUB1 kinase (result in words): tested at 5, 10 and 20 μM
Source text: A set of known compounds was screened using an in vitro huBUB1 kinase assay. Tested compounds included olomucine, myrecetin, hypericin, iodotubercidin, ellagic acid, emodin, and staurosporine. The relative specificity of these compounds towards known kinases has been reported in the literature. Some of these compounds can be classified as relatively specific kinase inhibitors (e.g., olomucine, myrecetin, ellagic acid), while other inhibitors are known to inhibit a broad range of kinase (e.g., hypericin, iodotubercidin, staurosporine).
Unlabeled FLAG-BUB3/BUB1 in vitro translation products were immunopurified with anti-FLAG. […] kinase reactions were performed in the presence and absence of inhibitors in 20 μl reaction volumes. Labeled reaction products were separated on SDS-PAGE gels, and relative huBUB1 autophosphorylation was determined with the aid of a phosphorimager. An initial screen was conducted using 10 and 20 μM of each compound. Compounds with a positive result in this screen were then retested at 5, 10 and 20 μM (Table 1).

T1 sequence (O43683 whole entry): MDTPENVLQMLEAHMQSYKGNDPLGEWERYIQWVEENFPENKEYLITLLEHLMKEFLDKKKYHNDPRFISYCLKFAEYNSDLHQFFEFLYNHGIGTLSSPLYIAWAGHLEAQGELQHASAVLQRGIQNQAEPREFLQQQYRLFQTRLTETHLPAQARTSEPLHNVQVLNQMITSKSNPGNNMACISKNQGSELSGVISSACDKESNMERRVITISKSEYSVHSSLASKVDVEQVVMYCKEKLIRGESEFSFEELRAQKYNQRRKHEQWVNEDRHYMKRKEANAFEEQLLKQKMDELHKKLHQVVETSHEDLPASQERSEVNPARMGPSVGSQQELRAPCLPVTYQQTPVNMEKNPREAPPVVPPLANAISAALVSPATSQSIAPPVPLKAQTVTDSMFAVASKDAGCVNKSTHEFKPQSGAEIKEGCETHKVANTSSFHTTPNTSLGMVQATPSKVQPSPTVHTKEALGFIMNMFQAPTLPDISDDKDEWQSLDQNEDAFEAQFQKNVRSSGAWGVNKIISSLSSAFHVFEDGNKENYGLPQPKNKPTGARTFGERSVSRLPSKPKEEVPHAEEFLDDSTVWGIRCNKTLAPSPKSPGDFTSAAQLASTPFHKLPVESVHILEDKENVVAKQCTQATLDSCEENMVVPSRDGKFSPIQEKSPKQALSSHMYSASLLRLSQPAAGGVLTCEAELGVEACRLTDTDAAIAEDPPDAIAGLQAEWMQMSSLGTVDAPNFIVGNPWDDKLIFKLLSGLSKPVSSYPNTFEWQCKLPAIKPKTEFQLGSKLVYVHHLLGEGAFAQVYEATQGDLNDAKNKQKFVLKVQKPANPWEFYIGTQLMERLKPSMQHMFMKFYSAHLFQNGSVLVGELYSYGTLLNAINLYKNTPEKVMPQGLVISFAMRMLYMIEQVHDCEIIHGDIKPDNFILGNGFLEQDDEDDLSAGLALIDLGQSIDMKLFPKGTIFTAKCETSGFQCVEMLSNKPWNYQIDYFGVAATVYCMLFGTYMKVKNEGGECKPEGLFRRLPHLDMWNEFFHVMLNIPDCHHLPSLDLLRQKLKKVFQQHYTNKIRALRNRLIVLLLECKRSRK
T1 sequence (O43684 whole entry partner): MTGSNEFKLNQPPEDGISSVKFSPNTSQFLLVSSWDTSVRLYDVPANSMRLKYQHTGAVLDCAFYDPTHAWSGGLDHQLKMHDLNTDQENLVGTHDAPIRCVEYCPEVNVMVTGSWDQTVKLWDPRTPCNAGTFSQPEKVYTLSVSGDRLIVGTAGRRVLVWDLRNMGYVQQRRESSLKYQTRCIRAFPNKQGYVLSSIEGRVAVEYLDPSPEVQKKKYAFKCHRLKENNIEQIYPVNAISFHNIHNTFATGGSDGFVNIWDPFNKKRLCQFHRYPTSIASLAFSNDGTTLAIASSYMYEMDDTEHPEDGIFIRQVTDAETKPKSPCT

SMILES	relative huBUB1 autophosphorylation (5 μM compound)	relative huBUB1 autophosphorylation (10 μM compound)	relative huBUB1 autophosphorylation (20 μM compound)	inhibition of huBUB1 kinase (result in words)
Nc1ncnc2c1c(I)cn2[C@@H]1O[C@H](CO)[C@@H](O)[C@H]1O [iodotubercidin]	0.56 +/− 0.08	0.41 +/− 0.09	0.32 +/− 0.05	clearly inhibited
Cc1cc(O)c2c(=O)c3c(O)cc(O)c4c5c(O)cc(O)c6c(=O)c7c(O)cc(C)c8c1c2c(c34)c(c78)c65 [hypericin]	0.63 +/− 0.07	0.47 +/− 0.13	0.36 +/− 0.05	
CN[C@@H]1C[C@H]2O[C@@](C)([C@@H]1OC)n1c3ccccc3c3c4c(c5c6ccccc6n2c5c31)C(=O)NC4 [staurosporine]	0.45 +/− 0.11	0.49 +/− 0.11	0.26 +/− 0.04	clearly inhibited
